Each structure is given as a SMILES string.

The assay concerns the target SMYD3 (Homo sapiens (Human), UniProt Q9H7B4). Briefly: SMYD3 biochemical assay (SPA, 3H-SAM methylation of MEKK2 protein substrate). The note with it: read-out: SMYD3 Biochem IC50 (μM)*. In a few lines:
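Methylation of N-terminally GST-tagged MEKK2 by untagged full-length human SMYD3, using 3H-SAM, in pH 8.0 Tris buffer with TCEP, BSG and Tween 20; enzyme and compound sat 30 min at room temperature before substrate addition. Stopped with 100 uM (final) cold SAM; incorporation read by scintillation proximity as dpm/cpm.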
By IC50 is commonly meant the concentration that gives 50% inhibition. Consider `CC(C)OCCS(=O)(=O)N1CC[C@H](NC(=O)c2cc(C3CC3)on2)C[C@@H]1C` [compound 237, 5-cyclopropyl-N-((2S,4S)-1-((2-isopropoxyethyl)sulfonyl)-2-methylpiperidin-4-yl)isoxazole-3-carboxamide], for which the IC50 was 3.46 µM. `CCCS(=O)(=O)N1CC[C@H](NC(=O)c2cc(C3CC3)on2)C[C@H]1C` [compound 238, 5-cyclopropyl-N-((2R,4S)-2-methyl-1-(propylsulfonyl)piperidin-4-yl)isoxazole-3-carboxamide]: the 50% inhibitory concentration (IC50) was over 10 µM. The same measure for `CC(C)CS(=O)(=O)N1CC[C@H](NC(=O)c2cc(C3CC3)on2)C[C@H]1C` [compound 239, 5-cyclopropyl-N-((2R,4S)-1-(isobutylsulfonyl)-2-methylpiperidin-4-yl)isoxazole-3-carboxamide]: over 10 µM. Regarding `CCCCS(=O)(=O)N1CC[C@H](NC(=O)c2cc(C3CC3)on2)C[C@H]1C` [compound 240, N-((2R,4S)-1-(butylsulfonyl)-2-methylpiperidin-4-yl)-5-cyclopropylisoxazole-3-carboxamide], the IC50 is over 10 µM.

With `C[C@@H]1C[C@@H](NC(=O)c2cc(C3CC3)on2)CCN1S(=O)(=O)c1ccc(Cl)nc1` [compound 241, N-((2R,4S)-1-((6-chloropyridin-3-yl)sulfonyl)-2-methylpiperidin-4-yl)-5-cyclopropylisoxazole-3-carboxamide], the IC50 is over 10 µM. Take `C[C@@H]1C[C@@H](NC(=O)c2cc(C3CC3)on2)CCN1S(=O)(=O)N1CCCC1` [compound 242, 5-cyclopropyl-N-((2R,4S)-2-methyl-1-(pyrrolidin-1-ylsulfonyl)piperidin-4-yl)isoxazole-3-carboxamide]: the IC50 was over 10 µM.

As for `C[C@@H]1C[C@@H](NC(=O)c2cc(C3CC3)on2)CCN1S(=O)(=O)N1CCN(C)CC1` [compound 243, 5-cyclopropyl-N-((2R,4S)-2-methyl-1-((4-methylpiperazin-1-yl)sulfonyl)piperidin-4-yl)isoxazole-3-carboxamide], the IC50 amounted to 1.76 µM. Regarding `CCOC(=O)CS(=O)(=O)N1CC[C@@H](NC(=O)c2cc(C3CC3)on2)C[C@@H]1C` [compound 245, ethyl 2-(((2S,4R)-4-(5-cyclopropylisoxazole-3-carboxamido)-2-methylpiperidin-1-yl)sulfonyl)acetate], the concentration for half-maximal inhibition (IC50) is over 10 µM. The same measure for `C[C@H]1C[C@H](NC(=O)c2cc(C3CC3)on2)CCN1S(=O)(=O)CC(F)(F)F` [compound 246, 5-cyclopropyl-N-((2S,4R)-2-methyl-1-((2,2,2-trifluoroethyl)sulfonyl)piperidin-4-yl)isoxazole-3-carboxamide]: over 10 µM. Regarding `C[C@H]1C[C@H](NC(=O)c2cc(C3CC3)on2)CCN1S(=O)(=O)C1CC1` [compound 247, 5-cyclopropyl-N-((2S,4R)-1-(cyclopropylsulfonyl)-2-methylpiperidin-4-yl)isoxazole-3-carboxamide], the concentration for half-maximal inhibition (IC50) is over 10 µM. For `COCCS(=O)(=O)N1CC[C@@H](NC(=O)c2cc(C3CC3)on2)C[C@@H]1C` [compound 248, 5-cyclopropyl-N-((2S,4R)-1-((2-methoxyethyl)sulfonyl)-2-methylpiperidin-4-yl)isoxazole-3-carboxamide], the half-inhibitory concentration (IC50) was over 10 µM. Then `CCCS(=O)(=O)N1CC[C@@H](NC(=O)c2cc(C3CC3)on2)C[C@H]1C` [compound 249, 5-cyclopropyl-N-((2R,4R)-2-methyl-1-(propylsulfonyl)piperidin-4-yl)isoxazole-3-carboxamide], with over 10 µM; and `CC(C)CS(=O)(=O)N1CC[C@@H](NC(=O)c2cc(C3CC3)on2)C[C@H]1C` [compound 250, 5-cyclopropyl-N-((2R,4R)-1-(isobutylsulfonyl)-2-methylpiperidin-4-yl)isoxazole-3-carboxamide], with 9.45 µM. Regarding `CCCCS(=O)(=O)N1CC[C@@H](NC(=O)c2cc(C3CC3)on2)C[C@H]1C` [compound 251, N-((2R,4R)-1-(butylsulfonyl)-2-methylpiperidin-4-yl)-5-cyclopropylisoxazole-3-carboxamide], the IC50 was 6.15 µM. With `CCOC(=O)CS(=O)(=O)N1CC[C@@H](NC(=O)c2cc(C3CC3)on2)C[C@H]1C` [compound 252, ethyl 2-(((2R,4R)-4-(5-cyclopropylisoxazole-3-carboxamido)-2-methylpiperidin-1-yl)sulfonyl)acetate], the half-maximal inhibitory concentration (IC50) was over 10 µM. Consider `C[C@@H]1C[C@H](NC(=O)c2cc(C3CC3)on2)CCN1S(=O)(=O)c1ccc(Cl)nc1` [compound 253, N-((2R,4R)-1-((6-chloropyridin-3-yl)sulfonyl)-2-methylpiperidin-4-yl)-5-cyclopropylisoxazole-3-carboxamide], for which the half-inhibitory concentration (IC50) was over 10 µM. For the compound `C[C@@H]1C[C@H](NC(=O)c2cc(C3CC3)on2)CCN1S(=O)(=O)N1CCCC1` [compound 254, 5-cyclopropyl-N-((2R,4R)-2-methyl-1-(pyrrolidin-1-ylsulfonyl)piperidin-4-yl)isoxazole-3-carboxamide], the IC50 worked out at 4.14 µM. In the case of `C[C@@H]1C[C@H](NC(=O)c2cc(C3CC3)on2)CCN1S(=O)(=O)N1CCN(C)CC1` [compound 255, 5-cyclopropyl-N-((2R,4R)-2-methyl-1-((4-methylpiperazin-1-yl)sulfonyl)piperidin-4-yl)isoxazole-3-carboxamide], the 50% inhibitory concentration (IC50) came to 1.2 µM. Consider `COC(=O)CCS(=O)(=O)N1CC[C@@H](NC(=O)c2cc(C3CC3)on2)C[C@H]1C` [compound 256, methyl 3-(((2R,4R)-4-(5-cyclopropylisoxazole-3-carboxamido)-2-methylpiperidin-1-yl)sulfonyl)propanoate], for which the IC50 is over 10 µM.

On to `COCCS(=O)(=O)N1CC[C@@H](NC(=O)c2cc(C3CC3)on2)C[C@H]1C` [compound 257, 5-cyclopropyl-N-((2R,4R)-1-((2-methoxyethyl)sulfonyl)-2-methylpiperidin-4-yl)isoxazole-3-carboxamide], for which the concentration for half-maximal inhibition (IC50) turned out to be 9.29 µM. The same measure for `C[C@@H]1C[C@H](NC(=O)c2cc(C3CC3)on2)CCN1S(=O)(=O)CCC(F)(F)F` [compound 258, 5-cyclopropyl-N-((2R,4R)-2-methyl-1-((3,3,3-trifluoropropyl)sulfonyl)piperidin-4-yl)isoxazole-3-carboxamide]: 8.37 µM; for `COCCCS(=O)(=O)N1CC[C@@H](NC(=O)c2cc(C3CC3)on2)C[C@H]1C` [compound 259, 5-cyclopropyl-N-((2R,4R)-1-((3-methoxypropyl)sulfonyl)-2-methylpiperidin-4-yl)isoxazole-3-carboxamide]: over 10 µM. On to `CCS(=O)(=O)N1CC[C@H](NC(=O)c2cc(C3CC3)on2)C[C@@H]1C` [compound 260, 5-cyclopropyl-N-((2S,4S)-1-(ethylsulfonyl)-2-methylpiperidin-4-yl)isoxazole-3-carboxamide], for which the IC50 stood at 2.45 µM.

Take `CCS(=O)(=O)N1CC[C@@H](NC(=O)c2cc(C3CC3)on2)C[C@H]1C` [compound 261, 5-cyclopropyl-N-((2R,4R)-1-(ethylsulfonyl)-2-methylpiperidin-4-yl)isoxazole-3-carboxamide]: the IC50 was over 10 µM. As to `CCS(=O)(=O)N1CC[C@@H](NC(=O)c2cc(C3CC3)on2)C[C@@H]1C` [compound 262, 5-cyclopropyl-N-((2S,4R)-1-(ethylsulfonyl)-2-methylpiperidin-4-yl)isoxazole-3-carboxamide], the IC50 was over 10 µM.

`C[C@@H]1CC(NC(=O)c2cc(C3CC3)on2)CCN1C(=O)CC1CCCC(N)C1` (stereo partly drawn) [compound 264, N-((2R)-1-(2-(3-aminocyclohexyl)acetyl)-2-methylpiperidin-4-yl)-5-cyclopropylisoxazole-3-carboxamide]: the IC50 was 0.41 µM.

Take `C[C@H]1C[C@H](NC(=O)c2cc(C3CC3)on2)CCN1C(=O)CC1(CN)CCCCC1` [compound 266, N-((2S,4R)-1-(2-(1-(aminomethyl)cyclohexyl)acetyl)-2-methylpiperidin-4-yl)-5-cyclopropylisoxazole-3-carboxamide]: the IC50 is over 10 µM.

For the compound `C[C@@H]1C[C@@H](NC(=O)c2cc(C3CC3)on2)CCN1C(=O)CC1(CN)CCCCC1` [compound 267, N-((2R,4S)-1-(2-(1-(aminomethyl)cyclohexyl)acetyl)-2-methylpiperidin-4-yl)-5-cyclopropylisoxazole-3-carboxamide], the IC50 amounted to 8.52 µM. Regarding `C[C@@H]1C[C@@H](NC(=O)c2cc(C3CC3)on2)CCN1C(=O)CC(C)(C)CN` [compound 268, N-((2R,4S)-1-(4-amino-3,3-dimethylbutanoyl)-2-methylpiperidin-4-yl)-5-cyclopropylisoxazole-3-carboxamide], the IC50 came to 3.15 µM.

In the case of `C[C@H]1C[C@H](NC(=O)c2cc(C3CC3)on2)CCN1C(=O)CCCCN` [compound 273, N-((2S,4R)-1-(5-aminopentanoyl)-2-methylpiperidin-4-yl)-5-cyclopropylisoxazole-3-carboxamide], the half-inhibitory concentration (IC50) was 7.83 µM. For `C[C@H]1C[C@@H](NC(=O)c2cc(C3CC3)on2)CCN1S(=O)(=O)C1CC1` [compound 276, 5-cyclopropyl-N-((2S,4S)-1-(cyclopropylsulfonyl)-2-methylpiperidin-4-yl)isoxazole-3-carboxamide], the IC50 is 3.63 µM. `C[C@H]1C[C@@H](NC(=O)c2cc(C3CC3)on2)CCN1S(=O)(=O)N1CCCC1` [compound 277, 5-cyclopropyl-N-((2S,4S)-2-methyl-1-(pyrrolidin-1-ylsulfonyl)piperidin-4-yl)isoxazole-3-carboxamide]: the 50% inhibitory concentration (IC50) stood at 0.654 µM. For `CNS(=O)(=O)N1CC[C@H](NC(=O)c2cc(C3CC3)on2)C[C@@H]1C` [compound 278, 5-cyclopropyl-N-((2S,4S)-2-methyl-1-(N-methylsulfamoyl)piperidin-4-yl)isoxazole-3-carboxamide], the IC50 was 2.89 µM.

Values taken from patent US10577363B2, “Substituted piperidine compounds” (EPIZYME, INC., priority 2014, dated 2020).
